Assay results: patent US9434727B2, “Substituted 4-phenylpiperidines, their preparation and use” (THE TRUSTEES OF COLUMBIA UNIVERSITY IN THE CITY OF NEW YORK, priority 2014, dated 2016)

What was measured:
[1] = molecular target: RBP4 (Homo sapiens (Human), UniProt P02753); test: Scintillation proximity (SPA) RBP4 binding assay; details: 10 nM 3H-Retinol, 50 nM biotinylated RBP4
Protocol: Scintillation Proximity RBP4 Binding Assay
Untagged human RBP4 purified from urine of tubular proteinuria patients was purchased from Fitzgerald Industries International. It was biotinylated using the EZ-Link Sulfo-NHS-LC-Biotinylation kit from Pierce following the manufacturer's recommendations. Binding experiments were performed in 96-well plates (OptiPlate, PerkinElmer) in a final assay volume of 100 μl per well in SPA buffer (IX PBS, pH 7.4, 1 mM EDTA, 0.1% BSA, 0.5% CHAPS). The reaction mix contained 10 nM ^3H-Retinol (48.7 Ci/mmol; PerkinElmer), 0.3 mg/well Streptavidin-PVT beads, 50 nM biotinylated RBP4 and a test compound. Nonspecific binding was determined in the presence of 20 μM of unlabeled retinol. The reaction mix was assembled in the dark under dim red light. The plates were sealed with clear tape (TopSeal-A: 96-well microplate, PerkinElmer), wrapped in the aluminum foil, and allowed to equilibrate 6 hours at room temperature followed by overnight incubation at +4° C. Radiocounts were measured using a TopCount NXT counter (Packard Instrument Company).

[2] = molecular target: RBP4-TTR interaction (Homo sapiens (Human), UniProt P02753); test: TR-FRET (HTRF) assay for retinol-induced RBP4-TTR interaction; assay type: biochemical; details: in the presence of 1 μM retinol; read-out: HTRF assay for antagonists of RBP4-TTR interaction: IC50
Description: TR-FRET assay for retinol-induced RBP4-TTR interaction Binding of a desired RBP4 antagonist displaces retinol and induces hindrance for RBP4-TTR interaction resulting in the decreased FRET signal (FIG. 7). Bacterially expressed MBP-RBP4 and untagged TTR were used in this assay. […] Following cell lysis, recombinant RBP4 was purified from the soluble fraction using the ACTA FPLC system (GE Healthcare) equipped with the 5-ml the MBP Trap HP column. Human untagged TTR was purchased from Calbiochem. Untagged TTR was labeled directly with Eu^3+ Cryptate-NHS using the HTRF Cryptate Labeling kit from CisBio following the manufacturer's recommendations. HTRF assay was performed in white low volume 384 well plates (Greiner-Bio) in a final assay volume of 16 μl per well. The reaction buffer contained 10 mM Tris-HCl pH 7.5, 1 mM DTT, 0.05% NP-40, 0.05% Prionex, 6% glycerol, and 400 mM KF. […] Titration of test compounds in this assay was conducted in the presence of 1 μM retinol. All reactions were assembled in the dark under dim red light and incubated overnight at +4° C. wrapped in aluminum foil. TR-FRET signal was measured in the SpectraMax M5e Multimode Plate Reader (Molecular Device). […] The TR-FRET signal was expressed as the ratio of fluorescence intensity: Flu665/Flu620×10,000.

Row | SMILES | IC50 [1] [nM] | IC50 [2] [nM]
1 | O=C(c1n[nH]c2c1CN(CC(F)(F)F)CC2)N1CCC(c2cccc(F)c2C(F)(F)F)CC1 [Compound 71, (4-(3-Fluoro-2-(trifluoromethyl)phenyl)piperidin-1-yl)(5-(2,2,2-trifluoroethyl)-4,5,6,7-tetrahydro-1H-pyrazolo[4,3-c]pyridin-3-yl)methanone] | 17.1 | 52.6
2 | COCCN1CCc2[nH]nc(C(=O)N3CCC(c4cc(F)cc(F)c4C(F)(F)F)CC3)c2C1 [Compound 127, (4-(3,5-Difluoro-2-(trifluoromethyl)phenyl)piperidin-1-yl)(5-(2-methoxyethyl)-4,5,6,7-tetrahydro-1H-pyrazolo[4,3-c]pyridin-3-yl)methanone] | 15.9 | 17
3 | O=C(c1n[nH]c2c1CN(C(=O)N1CCCC1)C2)N1CCC(c2ccc(F)c(F)c2C(F)(F)F)CC1 [Compound 106, (4-(3,4-difluoro-2-(trifluoromethyl)phenyl)piperidin-1-yl)(5-(pyrrolidine-1-carbonyl)-1,4,5,6-tetrahydropyrrolo[3,4-c]pyrazol-3-yl)methanone] | 20.4 | 29.8
4 | O=C(c1n[nH]c2c1CN(C(=O)N1CCNCC1)C2)N1CCC(c2ccc(F)c(F)c2C(F)(F)F)CC1 [Compound 169, (4-(3,4-Difluoro-2-(trifluoromethyl)phenyl)piperidin-1-yl)(5-(piperazine-1-carbonyl)-1,4,5,6-tetrahydropyrrolo[3,4-c]pyrazol-3-yl)methanone] | 33 | 55.8
5 | CNC(=O)N1CCc2[nH]nc(C(=O)N3CCC(c4ccc(F)c(F)c4C(F)(F)F)CC3)c2C1 [Compound 92, 3-(4-(3,4-difluoro-2-(trifluoromethyl)phenyl)piperidine-1-carbonyl)-N-methyl-6,7-dihydro-1H-pyrazolo[4,3-c]pyridine-5(4H)-carboxamide] | 10.2 | 76.6
6 | O=C(c1n[nH]c2c1CCN(C1COC1)C2)N1CCC(c2ccc(F)c(F)c2C(F)(F)F)CC1 [Compound 117, (4-(3,4-Difluoro-2-(trifluoromethyl)phenyl)piperidin-1-yl)(6-(oxetan-3-yl)-4,5,6,7-tetrahydro-1H-pyrazolo[3,4-c]pyridin-3-yl)methanone] | 5.48 | 37.7
7 | CC(C)CC(=O)N1CCc2c(C(=O)N3CCC(c4ccc(F)c(F)c4C(F)(F)F)CC3)n[nH]c2C1 [Compound 123, 1-(3-(4-(3,4-Difluoro-2-(trifluoromethyl)phenyl)piperidine-1-carbonyl)-1,4,5,7-tetrahydro-6H-pyrazolo[3,4-c]pyridin-6-yl)-3-methylbutan-1-one] | 15.1 | 52.2
8 | CCN1CCc2c(C(=O)N3CCC(c4cccc(F)c4C(F)(F)F)CC3)n[nH]c2C1 [Compound 75, (6-Ethyl-4,5,6,7-tetrahydro-1H-pyrazolo[3,4-c]pyridin-3-yl)(4-(3-fluoro-2-(trifluormethyl)phenyl)piperidin-1-yl)methanone] | 6.95 | 34
9 | N#Cc1ccc2nnc(C(=O)N3CCC(c4cc(F)ccc4Cl)CC3)n2c1 [Compound 145, 3-(4-(2-Chloro-5-fluorophenyl)piperidine-1-carbonyl)-[1,2,4]triazolo[4,3-a]pyridine-6-carbonitrile] | 7.57 | 67
10 | O=C(c1n[nH]c2c1CN(CC1CC1)CC2)N1CCC(c2cccc(F)c2Cl)CC1 [Compound 164, (4-(2-Chloro-3-fluorophenyl)piperidin-1-yl)(5-(cyclopropylmethyl)-4,5,6,7-tetrahydro-1H-pyrazolo[4,3-c]pyridin-3-yl)methanone] | 13.6 | 75
11 | O=C(O)CN1CCc2c(C(=O)N3CCC(c4ccc(F)c(F)c4C(F)(F)F)CC3)n[nH]c2C1 [Compound 115, 2-(3-(4-(3,4-Difluoro-2-(trifluoromethyl)phenyl)piperidine-1-carbonyl)-1,4,5,7-tetrahydro-6H-pyrazolo[3,4-c]pyridin-6-yl)acetic acid] | 18.9 | 109
12 | CC(C)CC(=O)N1Cc2[nH]nc(C(=O)N3CCC(c4ccc(F)c(F)c4C(F)(F)F)CC3)c2C1 [Compound 86, 1-(3-(4-(3,4-difluoro-2-(trifluoromethyl)phenyl)piperidine-1-carbonyl)pyrrolo[3,4-c]pyrazol-5(1H, 4H, 6H)-yl)-3-methylbutan-1-one] | 19.3 | 27.8
13 | CCN1CCc2[nH]nc(C(=O)N3CCC(c4cccc(F)c4Cl)CC3)c2C1 [Compound 163, (4-(2-Chloro-3-fluorophenyl)piperidin-1-yl)(5-ethyl-4,5,6,7-tetrahydro-1H-pyrazolo[4,3-c]pyridin-3-yl)methanone] | 15.3 | 55.3
14 | CC(C)C(=O)N1Cc2[nH]nc(C(=O)N3CCC(c4ccc(F)c(F)c4C(F)(F)F)CC3)c2C1 [Compound 85, 1-(3-(4-(3,4-difluoro-2-(trifluoromethyl)phenyl)piperidine-1-carbonyl)pyrrolo[3,4-c]pyrazol 5(1H,4H,6H)-yl)-2-methylpropan-1-one] | 17.9 | 22.4
15 | O=C(c1ccccc1)N1Cc2[nH]nc(C(=O)N3CCC(c4ccc(F)c(F)c4C(F)(F)F)CC3)c2C1 [Compound 102, (5-benzoyl-1,4,5,6-tetrahydropyrrolo[3,4-c]pyrazol-3-yl)(4-(3,4-difluoro-2-(trifluoromethyl)phenyl)piperidin-1-yl)methanone] | 21.7 | 27.6
16 | CC(=O)N1CCc2c(C(=O)N3CCC(c4cccc(F)c4C(F)(F)F)CC3)n[nH]c2C1 [Compound 63, 1-(3-(4-(3-Fluoro-2-(trifluoromethyl)phenyl)piperidine-1-carbonyl)-4,5-dihydro-1H-pyrazolo[3,4-c]pyridin-6(7H)-yl)ethanone] | 4.46 | 16
17 | O=C(c1n[nH]c2c1CCN(CCC(F)(F)F)C2)N1CCC(c2ccc(F)c(F)c2C(F)(F)F)CC1 [Compound 119, (4-(3,4-Difluoro-2(trifluoromethyl)phenyl)piperidin-1-yl)(6-(3,3,3-trifluoropropyl)-4,5,6,7-tetrahydro-1H-pyrazolo[3,4-c]pyridin-3-yl)methanone] | 10.7 | 39.4
18 | CS(=O)(=O)N1CCc2[nH]nc(C(=O)N3CCC(c4cccc(F)c4Cl)CC3)c2C1 [Compound 151] | 10.3 | 67.7
19 | COC(=O)N1CCc2c(C(=O)N3CCC(c4ccc(F)c(F)c4C(F)(F)F)CC3)n[nH]c2C1 [Compound 116, Methyl 3-(4-(3,4-difluoro-2-(trifluoromethyl)phenyl)piperidine-1-carbonyl)-1,4,5,7-tetrahydro-6H-pyrazolo[3,4-c]pyridine-6-carboxylate] | 11.4 | 23.7
20 | CC(=O)N1CCc2c(C(=O)N3CCC(c4cc(F)ccc4Cl)CC3)n[nH]c2C1 [Compound 143, 1-(3-(4-(2-chloro-5-fluorophenyl)piperidine-1-carbonyl)-4,5-dihydro-1H-pyrazolo[3,4-c]pyridin-6(7H)-yl)ethanone] | 8.83 | 52.3
21 | CCN1Cc2[nH]nc(C(=O)N3CCC(c4ccc(F)c(F)c4C(F)(F)F)CC3)c2C1 [Compound 96, (4-(3,4-difluoro-2(trifluoromethyl)phenyl)piperidin-1-yl)(5-ethyl-1,4,5,6-tetrahydropyrrolo[3,4-c]pyrazol-3-yl)methanone] | 12.7 | 26.5
22 | O=C(c1n[nH]c2c1CN(CCC(F)(F)F)CC2)N1CCC(c2cc(F)cc(F)c2C(F)(F)F)CC1 [Compound 129, (4-(3,5-Difluoro-2-(trifluoromethyl)phenyl)piperidin-1-yl)(5-(3,3,3-trifluoropropyl)-4,5,6,7-tetrahydro-1H-pyrazolo[4,3-c]pyridin-3-yl)methanone] | 13.8 | 19.5
23 | O=C(c1n[nH]c2c1CCN(CC1CC1)C2)N1CCC(c2cccc(F)c2Cl)CC1 [Compound 146, (4-(2-chloro-3-(fluorophenyl)piperidin-1-yl)(6-cyclopropylmethyl)-4,5,6,7-tetrahydro-1H-pyrazolo[3,4-c]pyridine-3-yl)methanone] | 15.9 | 36.5
24 | COC(=O)N1CCc2[nH]nc(C(=O)N3CCC(c4ccc(F)c(F)c4C(F)(F)F)CC3)c2C1 [Compound 91, methyl 3-(4-(3,4-difluoro-2-(trifluoromethyl)phenyl)piperidine-1-carbonyl)-6,7-dihydro-1H-pyrazolo[4,3-c]pyridine-5(4H)-carboxylate] | 7.06 | 57.7
